Measured values taken from patent US6734292B1, “Pseudoerythromycin derivatives” (The Kitasato Institute, priority 2002, dated 2004).

Test system: THP-1 cells
Assay: enhancing effect for differentiation-induction from human monocyte to macrophage (THP-1/Mφ system, MTT readout)
Type: cell-based
Set-up: key: ++: enhanced 100% or more; +: enhanced 50-100%; ±: enhanced 25-50%; −: no activity; /: expressed cytoxicity; NT: not tested or under assessment
Conditions: in comparison with enhancing action for differentiation-induction of EM 100 μM
Protocol: In order to confirm enhancing effect for differentiation-induction of the compounds of the present invention, the enhancing effect for differentiation-induction from human monocyte to macrophage was assayed. Method is performed as follows. THP-1 cells were collected from cultured liquid by centrifugation, adjusted the concentration to 2×10^5 cells/ml using medium (RPMI 1640) and distributed into the 48-well plate at 500 μl/well. PMA solution 10 μl and sample solution 5 μl were added in each well, stirred with mild shaking and incubated at 37° C. for 72-96 hours under 5% CO2. Further MTT 0.5 mg/ml solution was added at 300 μl/well, and incubated at 37° C. for 3 hours under 5% CO2. Supernatant solution was suctioned using the injection tube, added DMSO 500 μl using automatic continuous injector to dissolve formazan completely and transferred each 100 μl to the 96-well plate. The optical absorption was measured using the plate-reader.

| Compound | activities in THP-1/Mφ system, Treated conc. 3 μM | activities in THP-1/Mφ system, Treated conc. 10 μM | activities in THP-1/Mφ system, Treated conc. 30 μM | activities in THP-1/Mφ system, Treated conc. 0.3 μM | activities in THP-1/Mφ system, Treated conc. 1 μM |
| --- | --- | --- | --- | --- | --- |
| CC[C@H]1OC(=O)[C@H](C)[C@@H](O[C@H]2C[C@@](C)(OC)[C@@H](O)[C@H](C)O2)[C@H](C)[C@@H](O[C@@H]2O[C@H](C)C[C@H](N(C)C)[C@H]2O)[C@](C)(OC)C[C@@H](C)C(=O)[C@H](C)[C@@H](O)[C@]1(C)O [CAM, reference compound] | − | + (enhanced 50-100%) | − |  |  |
| CCC(O)C(C)(O)C1OC(=O)C(C)C(OC2CC(C)(OC)C(O)C(C)O2)C(C)C(OC2OC(C)CC(N)C2O)C2(C)CC(C)=C(O2)C1C (stereo not drawn) [EM721, bis-de(3′-N-methyl)-8,9-anhydro-pseudo erythromycin A 6,9-hemiketal] | − | + (enhanced 50-100%) |  |  |  |
| CCNC1CC(C)OC(OC2C(C)C(OC3CC(C)(OC)C(O)C(C)O3)C(C)C(=O)OC(C(C)(O)C(O)CC)C(C)C3=C(C)CC2(C)O3)C1O (stereo not drawn) [EM722, bis-de(3′-N-methyl)-3′-N-ethyl-8,9-anhydro-pseudoerythromycin A 6,9-hemiketal] | + (enhanced 50-100%) | ++ (enhanced 100% or more) |  | − | + (enhanced 50-100%) |
| CC[C@@H](O)[C@@](C)(O)[C@@H]1OC(=O)[C@H](C)[C@@H](O[C@H]2C[C@@](C)(OC)[C@@H](O)[C@H](C)O2)[C@H](C)[C@@H](O[C@@H]2O[C@H](C)C[C@H](N(CC)CC)[C@H]2O)[C@@]2(C)CC(C)=C(O2)[C@@H]1C [EM723, bis-de(3′-N-methyl)-3′,3′-N,N-diethyl-8,9-anhydro-pseudoerythromycin A 6,9-hemiketal] | + (enhanced 50-100%) |  |  | − | + (enhanced 50-100%) |
| C=CCNC1CC(C)OC(OC2C(C)C(OC3CC(C)(OC)C(O)C(C)O3)C(C)C(=O)OC(C(C)(O)C(O)CC)C(C)C3=C(C)CC2(C)O3)C1O (stereo not drawn) [EM724, bis-de(3′-N-methyl)-3′-N-allyl-8,9-anhydro-pseudoerythromycin A 6,9-hemiketal] | + (enhanced 50-100%) | ++ (enhanced 100% or more) |  | − | + (enhanced 50-100%) |
| C=CCN(CC=C)C1CC(C)OC(OC2C(C)C(OC3CC(C)(OC)C(O)C(C)O3)C(C)C(=O)OC(C(C)(O)C(O)CC)C(C)C3=C(C)CC2(C)O3)C1O (stereo not drawn) [EM725, bis-de(3′-N-methyl)-3′,3′-N,N-diallyl-8,9-anhydro-pseudoerythromycin A 6,9-hemiketal] | ± (enhanced 25-50%) | + (enhanced 50-100%) |  |  | − |
| CCC(O)C(C)(O)C1OC(=O)C(C)C(OC2CC(C)(OC)C(O)C(C)O2)C(C)C(OC2OC(C)CC(NC(C)=O)C2O)C2(C)CC(C)=C(O2)C1C (stereo not drawn) [EM726, bis-de(3′-N-methyl)-3′-N-acetyl-8,9-anhydro-pseudoerythromycin A 6,9-hemiketal] | − | − | − | − | − |
| CCC(O)C(C)(O)C1OC(=O)C(C)C(OC2CC(C)(OC)C(O)C(C)O2)C(C)C(OC2OC(C)CC(N(C)S(C)(=O)=O)C2O)C2(C)CC(C)=C(O2)C1C (stereo not drawn) [EM727, de(3′-N-methyl)-3′-N-sulfonyl-8,9-anhydro-pseudoerythromycin A 6,9-hemiketal] | + (enhanced 50-100%) | + (enhanced 50-100%) |  | − | + (enhanced 50-100%) |
| C#CCNC1CC(C)OC(OC2C(C)C(OC3CC(C)(OC)C(O)C(C)O3)C(C)C(=O)OC(C(C)(O)C(O)CC)C(C)C3=C(C)CC2(C)O3)C1O (stereo not drawn) [EM728, bis-de(3′-N-methyl)-3′-N-propargyl-8,9-anhydro-pseudoerythromycin A 6,9-hemiketal] | + (enhanced 50-100%) | + (enhanced 50-100%) | + (enhanced 50-100%) | − | + (enhanced 50-100%) |
| C#CCN(CC#C)C1CC(C)OC(OC2C(C)C(OC3CC(C)(OC)C(O)C(C)O3)C(C)C(=O)OC(C(C)(O)C(O)CC)C(C)C3=C(C)CC2(C)O3)C1O (stereo not drawn) [EM729, bis-de(3′-N-methyl)-3′,3′-N,N-di-propargyl-8,9-anhydro-pseudoerythromycin A 6,9-hemiketal] | ± (enhanced 25-50%) | ± (enhanced 25-50%) |  | − | ± (enhanced 25-50%) |
| CCCNC1CC(C)OC(OC2C(C)C(OC3CC(C)(OC)C(O)C(C)O3)C(C)C(=O)OC(C(C)(O)C(O)CC)C(C)C3=C(C)CC2(C)O3)C1O (stereo not drawn) [EM730, bis-de(3′-N-methyl)-3′-N-propyl-8,9-anhydro-pseudoerythromycin A 6,9-hemiketal] | + (enhanced 50-100%) |  |  | + (enhanced 50-100%) | + (enhanced 50-100%) |
| CCCN(CCC)C1CC(C)OC(OC2C(C)C(OC3CC(C)(OC)C(O)C(C)O3)C(C)C(=O)OC(C(C)(O)C(O)CC)C(C)C3=C(C)CC2(C)O3)C1O (stereo not drawn) [EM731, bis-de(3′-N-methyl)-3′,3′-N,N-di-propyl-8,9anhydro-pseudoerythromycin A 6,9-hemiketal] | + (enhanced 50-100%) |  |  | − | − |
| CCC(O)C(C)(O)C1OC(=O)C(C)C(OC2CC(C)(OC)C(O)C(C)O2)C(C)C(OC2OC(C)CC(NCc3ccccc3)C2O)C2(C)CC(C)=C(O2)C1C (stereo not drawn) [EM732, bis-de(3′-N-methyl)-3′-N-benzyl-8,9-anhydro-pseudoerythromycin A 6,9-hemiketal] | + (enhanced 50-100%) | + (enhanced 50-100%) |  | + (enhanced 50-100%) | + (enhanced 50-100%) |
| CCC(O)C(C)(O)C1OC(=O)C(C)C(OC2CC(C)(OC)C(O)C(C)O2)C(C)C(OC2OC(C)CC(N(Cc3ccccc3)Cc3ccccc3)C2O)C2(C)CC(C)=C(O2)C1C (stereo not drawn) [EM733, bis-de(3′-N-methyl)-3′,3′-N,N-di-benzyl-8,9-anhydro-pseudoerythromycin A 6,9-hemiketal] | ± (enhanced 25-50%) |  |  | − | ± (enhanced 25-50%) |
| CCC(O)C(C)(O)C1OC(=O)C(C)C(OC2CC(C)(OC)C(O)C(C)O2)C(C)C(OC2OC(C)CC(N3CCCC3)C2O)C2(C)CC(C)=C(O2)C1C (stereo not drawn) [EM735, de(3′-dimethylamino)-3′-pyrrolidino-8,9-anhydro-pseudoerythromycin A 6,9-hemiketal] | + (enhanced 50-100%) | ++ (enhanced 100% or more) |  | − | ± (enhanced 25-50%) |
| CC[C@@H](O)[C@@](C)(O)[C@@H]1OC(=O)[C@H](C)[C@@H](O[C@H]2C[C@@](C)(OC)[C@@H](O)[C@H](C)O2)[C@H](C)[C@@H](O[C@@H]2O[C@H](C)C[C@H](NC(C)C)[C@H]2O)[C@@]2(C)CC(C)=C(O2)[C@@H]1C [EM736, bis-de(3′-N-methyl)-3′-N-(2-propyl)-8,9-anhydro-pseudoerythromycin A 6,9-hemiketal] | + (enhanced 50-100%) | ++ (enhanced 100% or more) |  | − | ± (enhanced 25-50%) |
| CCC(O)C(C)(O)C1OC(=O)C(C)C(O)C(C)C(OC2OC(C)CC(N(C)C)C2O)C2(C)CC(C)=C(O2)C1C (stereo not drawn) [EM737, de(3-O-cladinosyl)-8,9-anhydro-pseudo erythromycin A 6,9-hemiketal] | − | + (enhanced 50-100%) |  |  |  |
